# Measured values reported in patent US20260295053A1, “COMPOUNDS FOR DEGRADATION AND INHIBITION OF KRAS (G12D) PROTEIN” (Shenzhen Ionova Life Science Co., Ltd., priority 2023, published 2026).
# What was measured:
# [1] = tested on: AsPC-1 cells; experiment: AsPC-1 cell proliferation assay (CellTiter Glo); format: cell-based; conditions: 6 days
# Procedure, shortened: (§1)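 Half-maximal degradation (DC50) and inhibition (IC50) concentrations are fitted from dose-response curves spanning […] to 1.5 nM final. KRAS G12D loss is measured by fluorescent antibody staining with β-actin reference after 24 h; growth is measured by ATP luminescence after a 6-day exposure.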
# [2] = molecular target: T1, KRAS (G12D) (Homo sapiens, UniProt P01116, G12D); experiment: KRAS (G12D) cellular degradation assay in AsPC-1 cells; format: cell-based; conditions: 24 hours, antibody fluorescence (Odyssey CLX), DC50 half-maximal degradation concentration
# T1 construct: in-cell western with KRAS G12D antibody after 24 h
# T1 sequence (P01116 1-188 isoform P01116-2 G12D): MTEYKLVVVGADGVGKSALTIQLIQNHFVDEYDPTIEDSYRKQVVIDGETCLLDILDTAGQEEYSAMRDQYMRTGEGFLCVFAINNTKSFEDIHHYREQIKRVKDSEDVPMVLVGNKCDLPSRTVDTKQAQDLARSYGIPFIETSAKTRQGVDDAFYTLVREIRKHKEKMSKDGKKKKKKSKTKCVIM
# Procedure, shortened: as §1
Structure (SMILES),"IC50 ([1]; Homo sapiens, ASPC1, 144 h)",DC50 [2],IC50 [1]
"CO[C@H]1C[C@H](Oc2nc(N(C)[C@H]3CCNC3)c3cc(C4CC4)c(-c4c(C)c(F)cc5[nH]ncc45)c(OCc4ccc(-c5cn([C@H](C(=O)N6C[C@H](O)C[C@H]6C(=O)N[C@H](c6ccc(-c7scnc7C)c7c6CC7)[C@H](C)O)C(C)C)nn5)cc4)c3n2)C1 [Example 194, (2S,4R)-1-((2S)-2-(4-(4-(((6-cyclopropyl-7-(6-fluoro-5-methyl-1H-indazol-4-yl)-2-((1r,3S)-3-methoxycyclobutoxy)-4-(methyl((S)-pyrrolidin-3-yl)amino)quinazolin-8-yl)oxy)methyl)phenyl)-1H-1,2,3-triazol-1-yl)-3-methylbutanoyl)-4-hydroxy-N-((1R,2S)-2-hydroxy-1-(5-(4-methylthiazol-5-yl)bicyclo[4.2.0]octa-1(6),2,4-trien-2-yl)propyl)pyrrolidine-2-carboxamide]",< 10 nM,< 10 nM,–
"CO[C@@H](C)COc1nc(N2C[C@@H]3C[C@H]2CN3)c2cc(C3CC3)c(-c3c(C)c(F)cc4[nH]ncc34)c(OCc3ccc(-c4cn([C@H](C(=O)N5C[C@H](O)C[C@H]5C(=O)N[C@H](C#Cc5cccc(F)c5F)CO)C(C)C)nn4)cc3)c2n1 [Example 60, (2S,4R)-1-((2S)-2-(4-(4-(((4-((1S,4S)-2,5-diazabicyclo[2.2.1]heptan-2-yl)-6-cyclopropyl-7-(6-fluoro-5-methyl-1H-indazol-4-yl)-2-((S)-2-methoxypropoxy)quinazolin-8-yl)oxy)methyl)phenyl)-1H-1,2,3-triazol-1-yl)-3-methylbutanoyl)-N—((R)-4-(2,3-difluorophenyl)-1-hydroxybut-3-yn-2-yl)-4-hydroxypyrrolidine-2-carboxamide]",< 10 nM,< 10 nM,–
"CCn1nccc1-c1ccc([C@H](CO)NC(=O)[C@@H]2C[C@@H](O)CN2C(=O)[C@H](C(C)C)n2cc(-c3ccc(COc4c(-c5c(C)c(F)cc6[nH]ncc56)c(C5CC5)cc5c(N6CCOCC(C)(O)C6)nc(OC[C@H](C)OC)nc45)cc3)nn2)cc1 (stereo partly drawn) [Example 161, (2S,4R)-1-((2S)-2-(4-(4-(((6-cyclopropyl-7-(6-fluoro-5-methyl-1H-indazol-4-yl)-4-(6-hydroxy-6-methyl-1,4-oxazepan-4-yl)-2-((S)-2-methoxypropoxy)quinazolin-8-yl)oxy)methyl)phenyl)-1H-1,2,3-triazol-1-yl)-3-methylbutanoyl)-N—((R)-1-(4-(1-ethyl-1H-pyrazol-5-yl)phenyl)-2-hydroxyethyl)-4-hydroxypyrrolidine-2-carboxamide]",< 10 nM,10 to 100 nM,–
"CO[C@H]1C[C@H](Oc2nc(N3CCCNCC3)c3cc(C4CC4)c(-c4c(C)c(F)cc5[nH]ncc45)c(OCc4ccc(-c5cn([C@H](C(=O)N6C[C@H](O)C[C@H]6C(=O)N[C@@H](CO)c6ccc(-c7scnc7C)cc6)C(C)C)nn5)cc4)c3n2)C1 [Example 199, (2S,4R)-1-((2S)-2-(4-(4-(((6-cyclopropyl-4-(1,4-diazepan-1-yl)-7-(6-fluoro-5-methyl-1H-indazol-4-yl)-2-((1r,3r)-3-methoxycyclobutoxy)quinazolin-8-yl)oxy)methyl)phenyl)-1H-1,2,3-triazol-1-yl)-3-methylbutanoyl)-4-hydroxy-N—((R)-2-hydroxy-1-(4-(4-methylthiazol-5-yl)phenyl)ethyl)pyrrolidine-2-carboxamide]",< 10 nM,< 10 nM,–
"CO[C@@H](C)COc1nc(N2C[C@@H]3C[C@H]2CN3)c2cc(C3CC3)c(-c3c(C)c(F)cc4[nH]ncc34)c(OCc3ccc(-c4cn([C@H](C(=O)N5C[C@H](O)C[C@H]5C(=O)N[C@H](C#Cc5nn(C)c6ccccc56)CO)C(C)C)nn4)cc3)c2n1 [Example 71, (2S,4R)-1-((2S)-2-(4-(4-(((4-((1S,4S)-2,5-diazabicyclo[2.2.1]heptan-2-yl)-6-cyclopropyl-7-(6-fluoro-5-methyl-1H-indazol-4-yl)-2-((S)-2-methoxypropoxy)quinazolin-8-yl)oxy)methyl)phenyl)-1H-1,2,3-triazol-1-yl)-3-methylbutanoyl)-4-hydroxy-N—((R)-1-hydroxy-4-(1-methyl-1H-indazol-3-yl)but-3-yn-2-yl)pyrrolidine-2-carboxamide]",< 10 nM,< 10 nM,–
"CO[C@H]1C[C@@H](Oc2nc(N3C[C@@H]4C[C@H]3CN4)c3cc(C4CC4)c(-c4c(C)c(F)cc5[nH]ncc45)c(OCc4ccc(-c5cn([C@H](C(=O)N6C[C@H](O)C[C@H]6C(=O)N[C@H](c6ccc(-c7scnc7C)cc6)[C@H](C)O)C(C)C)nn5)cc4)c3n2)C1 [Example 135, (2S,4R)-1-((2S)-2-(4-(4-(((4-((1S,4S)-2,5-diazabicyclo[2.2.1]heptan-2-yl)-6-cyclopropyl-7-(6-fluoro-5-methyl-1H-indazol-4-yl)-2-((1s,3R)-3-methoxycyclobutoxy)quinazolin-8-yl)oxy)methyl)phenyl)-1H-1,2,3-triazol-1-yl)-3-methylbutanoyl)-4-hydroxy-N-((1R,2S)-2-hydroxy-1-(4-(4-methylthiazol-5-yl)phenyl)propyl)purrolidine-2-carboxcamide]",< 10 nM,< 10 nM,–
"CCn1nccc1-c1ccc([C@@H](NC(=O)[C@@H]2C[C@@H](O)CN2C(=O)[C@H](C(C)C)n2cc(-c3ccc(COc4c(-c5c(C)c(F)cc6[nH]ncc56)c(C5CC5)cc5c(N6CCCNCC6)nc(O[C@H]6C[C@H](OC)C6)nc45)cc3)nn2)[C@H](C)O)cc1 [Example 156, (2S,4R)-1-((2S)-2-(4-(4-(((6-cyclopropyl-4-(1,4-diazepan-1-yl)-7-(6-fluoro-5-methyl-1H-indazol-4-yl)-2-((1r,3r)-3-methoxycyclobutoxy)quinazolin-8-yl)oxy)methyl)phenyl)-1H-1,2,3-triazol-1-yl)-3-methylbutanoyl)-N-((1R,2S)-1-(4-(1-ethyl-1H-pyrazol-5-yl)phenyl)-2-hydroxypropyl)-4-hydroxypyrrolidine-2-carboxamide]",< 10 nM,< 10 nM,–

# The remaining lines, values ahead:
"IC50 ([1]; Homo sapiens, ASPC1, 144 h)",DC50 [2],IC50 [1],Structure (SMILES)
< 10 nM,< 10 nM,–,"CCn1nccc1-c1ccc([C@H](CO)NC(=O)[C@@H]2C[C@@H](O)CN2C(=O)[C@H](C(C)C)n2cc(-c3ccc(COc4c(-c5c(C)c(F)cc6[nH]ncc56)c(C5CC5)cc5c(N6C[C@@H]7C[C@H]6CN7)nc(OCC6COC7OCCC67)nc45)cc3)nn2)cc1 (stereo partly drawn) [Example 51, (2S,4R)-1-((2S)-2-(4-(4-(((4-((1S,4S)-2,5-diazabicyclo[2.2.1]heptan-2-yl)-6-cyclopropyl-7-(6-fluoro-5-methyl-1H-indazol-4-yl)-2-((hexahydrofuro[2,3-b]furan-3-yl)methoxy)quinazolin-8-yl)oxy)methyl)phenyl)-1H-1,2,3-triazol-1-yl)-3-methylbutanoyl)-N—((R)-1-(4-(1-ethyl-1H-pyrazol-5-yl)phenyl)-2-hydroxyethyl)-4-hydroxypyrrolidine-2-carboxamide]"
–,< 10 nM,< 10 nM,"CO[C@@H](C)COc1nc(N(C)[C@H]2CCNC2)c2cc(C3CC3)c(-c3c(C)c(F)cc4[nH]ncc34)c(OCc3ccc(-c4cn([C@H](C(=O)N5C[C@H](O)C[C@H]5C(=O)N[C@H](c5ccc(-c6scnc6C)cc5)[C@H](C)O)C(C)C)nn4)cc3)c2n1 [Example 167, (2S,4R)-1-((2S)-2-(4-(4-(((6-cyclopropyl-7-(6-fluoro-5-methyl-1H-indazol-4-yl)-2-((S)-2-methoxypropoxy)-4-(methyl((S)-pyrrolidin-3-yl)amino)quinazolin-8-yl)oxy)methyl)phenyl)-1H-1,2,3-triazol-1-yl)-3-methylbutanoyl)-4-hydroxy-N-((1R,2S)-2-hydroxy-1-(4-(4-methylthiazol-5-yl)phenyl)propyl)pyrrolidine-2-carboxamide]"
< 10 nM,< 10 nM,–,"CO[C@@H](C)COc1nc(N2CCCNCC2)c2cc(C3CC3)c(-c3c(C)c(F)cc4[nH]ncc34)c(OCc3ccc(-c4cn([C@H](C(=O)N5C[C@H](O)C[C@H]5C(=O)N[C@@H](CO)c5ccc(-c6scnc6C)cc5)C(C)C)nn4)cc3)c2n1 [Example 179, (2S,4R)-1-((2S)-2-(4-(4-(((6-cyclopropyl-4-(1,4-diazepan-1-yl)-7-(6-fluoro-5-methyl-1H-indazol-4-yl)-2-((S)-2-methoxypropoxy)quinazolin-8-yl)oxy)methyl)phenyl)-1H-1,2,3-triazol-1-yl)-3-methylbutanoyl)-4-hydroxy-N—((R)-2-hydroxy-1-(4-(4-methylthiazol-5-yl)phenyl)ethyl)pyrrolidine-2-carboxamide]"
–,< 10 nM,10 to 100 nM,"CO[C@@H](C)COc1nc(N2C[C@H]3C[C@@H]2CN3)c2cc(C3CC3)c(-c3c(C)c(F)cc4[nH]ncc34)c(OCc3ccc(-c4cn([C@H](C(=O)N5C[C@H](O)C[C@H]5C(=O)N[C@@H](C)c5ccc(-c6scnc6C)cc5)C(C)C)nn4)cc3)c2n1 (single isomer, unassigned) [Example 3A]"
< 10 nM,< 10 nM,–,"Cc1ncsc1-c1ccc([C@@H](NC(=O)[C@@H]2C[C@@H](O)CN2C(=O)[C@H](C(C)C)n2cc(-c3ccc(COc4c(-c5c(C)c(F)cc6[nH]ncc56)c(C5CC5)cc5c(N6C[C@@H]7C[C@H]6CN7)nc(OC6CCOCC6)nc45)cc3)nn2)[C@@H](O)C2CC2)cc1 [Example 138, (2S,4R)-1-((2S)-2-(4-(4-(((4-((1S,4S)-2,5-diazabicyclo[2.2.1]heptan-2-yl)-6-cyclopropyl-7-(6-fluoro-5-methyl-1H-indazol-4-yl)-2-((tetrahydro-2H-pyran-4-yl)oxy)quinazolin-8-yl)oxy)methyl)phenyl)-1H-1,2,3-triazol-1-yl)-3-methylbutanoyl)-N-((1R,2S)-2-cyclopropyl-2-hydroxy-1-(4-(4-methylthiazol-5-yl)phenyl)ethyl)-4-hydroxypyrrolidine-2-carboxamide]"
